# Results as given in US20240092758A1, “IMIDAZOLO INDAZOLE COMPOUNDS AS JAK INHIBITORS” (Theravance Biopharma R&D IP, LLC, priority 2021, published 2024).
# Assays:
# JAK1 = JAK1 (Homo sapiens (Human), UniProt P23458); test: Biochemical JAK kinase assay (LanthaScreen), JAK1; details: for Ki: read-out: JAK1 pKi (converted)
# Procedure, shortened: (§1)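 LanthaScreen format: phospho-STAT1 (pTyr701) detected with 2 nM Tb antibody after 10 mM EDTA quench. Kinase step used Km-level ATP and 200 nM STAT1 peptide, 1 h at ambient after 1 h pre-incubation. Inhibition fitted to IC50, reported as pKi.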
# JAK2 = JAK2 (Homo sapiens (Human), UniProt O60674); test: Biochemical JAK kinase assay (LanthaScreen), JAK2; details: for Ki: read-out: JAK2 pKi (converted)
# Sequence of JAK2 (O60674 whole entry): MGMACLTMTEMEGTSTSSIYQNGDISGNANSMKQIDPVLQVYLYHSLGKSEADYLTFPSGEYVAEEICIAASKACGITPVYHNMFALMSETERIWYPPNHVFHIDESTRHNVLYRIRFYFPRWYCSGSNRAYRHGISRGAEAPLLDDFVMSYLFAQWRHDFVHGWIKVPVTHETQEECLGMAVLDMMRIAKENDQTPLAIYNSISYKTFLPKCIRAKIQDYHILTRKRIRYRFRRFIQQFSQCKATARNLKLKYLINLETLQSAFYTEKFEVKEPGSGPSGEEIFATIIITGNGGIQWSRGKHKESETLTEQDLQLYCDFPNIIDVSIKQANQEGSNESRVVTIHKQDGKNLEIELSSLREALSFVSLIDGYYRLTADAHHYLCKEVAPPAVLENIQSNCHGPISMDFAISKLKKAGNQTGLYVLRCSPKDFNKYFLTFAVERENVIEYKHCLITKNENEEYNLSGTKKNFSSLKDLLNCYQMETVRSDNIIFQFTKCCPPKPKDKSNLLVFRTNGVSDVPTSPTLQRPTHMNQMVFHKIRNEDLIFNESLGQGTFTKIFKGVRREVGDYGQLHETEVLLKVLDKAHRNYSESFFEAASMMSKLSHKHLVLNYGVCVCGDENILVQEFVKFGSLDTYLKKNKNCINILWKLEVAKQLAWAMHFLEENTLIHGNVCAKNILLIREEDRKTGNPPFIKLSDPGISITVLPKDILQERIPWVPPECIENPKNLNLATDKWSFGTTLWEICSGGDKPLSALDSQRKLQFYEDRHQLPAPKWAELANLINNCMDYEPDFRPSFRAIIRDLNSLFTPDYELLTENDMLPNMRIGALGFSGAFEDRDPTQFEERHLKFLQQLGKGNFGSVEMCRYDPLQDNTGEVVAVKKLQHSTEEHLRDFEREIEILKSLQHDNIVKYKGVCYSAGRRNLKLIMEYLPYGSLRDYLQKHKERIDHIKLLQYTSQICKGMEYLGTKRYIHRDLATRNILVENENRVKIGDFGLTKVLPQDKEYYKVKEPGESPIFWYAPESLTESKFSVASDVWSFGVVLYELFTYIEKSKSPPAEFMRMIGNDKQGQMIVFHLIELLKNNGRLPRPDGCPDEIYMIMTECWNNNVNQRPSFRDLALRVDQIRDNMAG
# Procedure, shortened: as §1
# [1] = tested on: IL-13 induced STAT6 phosphorylation in BEAS-2B human lung epithelial cells; test: Cellular JAKI potency assay (BEAS-2B); format: cell-based; details: BEAS-2B cells; for IC50: Homo sapiens, BEAS-2B, read-out: BEAS2B pIC50 (converted)
# Procedure, shortened: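 BEAS-2B cells were preincubated with compound (0.1% DMSO) in HBSS/HEPES/BSA for 1 h at 37 °C, then stimulated with IL-13 (80 ng/mL before addition) for 30 min. After lysis, pSTAT6 (Tyr641) was quantified by AlphaLISA SureFire; IC50 from a 4-parameter fit of percent inhibition, reported as pIC50.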
# Sequence of JAK1 (P23458 whole entry): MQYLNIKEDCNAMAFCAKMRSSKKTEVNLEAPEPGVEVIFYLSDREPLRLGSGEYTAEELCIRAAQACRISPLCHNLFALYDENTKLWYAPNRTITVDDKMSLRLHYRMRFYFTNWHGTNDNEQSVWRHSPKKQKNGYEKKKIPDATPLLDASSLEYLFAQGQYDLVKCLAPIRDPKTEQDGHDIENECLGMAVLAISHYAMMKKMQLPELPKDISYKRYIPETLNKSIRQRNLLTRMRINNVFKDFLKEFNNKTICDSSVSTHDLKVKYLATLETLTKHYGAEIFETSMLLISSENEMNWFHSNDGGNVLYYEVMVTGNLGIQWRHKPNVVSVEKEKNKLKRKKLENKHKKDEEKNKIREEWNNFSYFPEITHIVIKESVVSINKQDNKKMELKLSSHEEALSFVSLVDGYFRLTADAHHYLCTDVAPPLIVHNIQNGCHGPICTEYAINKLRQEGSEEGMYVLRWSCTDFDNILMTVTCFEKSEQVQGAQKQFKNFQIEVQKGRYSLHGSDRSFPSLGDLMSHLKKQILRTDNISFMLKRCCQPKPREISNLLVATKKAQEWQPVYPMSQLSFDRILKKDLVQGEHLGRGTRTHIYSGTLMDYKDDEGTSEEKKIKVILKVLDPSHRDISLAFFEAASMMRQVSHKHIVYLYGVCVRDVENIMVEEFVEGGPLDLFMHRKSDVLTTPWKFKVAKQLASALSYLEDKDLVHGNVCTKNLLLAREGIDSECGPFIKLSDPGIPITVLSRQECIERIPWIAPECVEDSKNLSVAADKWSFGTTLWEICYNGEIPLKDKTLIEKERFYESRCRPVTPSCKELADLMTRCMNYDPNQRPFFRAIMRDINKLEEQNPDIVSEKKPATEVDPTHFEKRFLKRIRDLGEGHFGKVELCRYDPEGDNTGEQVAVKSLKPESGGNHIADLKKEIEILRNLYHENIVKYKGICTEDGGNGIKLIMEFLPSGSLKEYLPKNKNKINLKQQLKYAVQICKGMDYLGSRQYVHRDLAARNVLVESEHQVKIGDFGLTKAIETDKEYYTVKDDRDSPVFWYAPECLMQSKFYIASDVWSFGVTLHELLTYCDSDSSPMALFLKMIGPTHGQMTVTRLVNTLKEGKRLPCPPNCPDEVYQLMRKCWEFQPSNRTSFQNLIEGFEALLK
SMILES,Ki (JAK1) [nM],JAK2 pKi (JAK2),IC50 [1] [nM],Ki (JAK2) [nM],BEAS2B pIC50 [1],JAK1 pKi (JAK1)
CCc1cc(O)ccc1-c1ccc2c(-c3nc(C4=CCN(C(=O)CNCCOC)C4)c[nH]3)n[nH]c2c1F [Example 362],0.1 to 1,A (A represents a pKi value ≥10 (Ki≤0.1 nM)),31.6 to 100,–,–,–
CCc1cc(O)ccc1-c1ccc2c(-c3nc(C4=CCN(C(=O)CCN(C)C)C4)c[nH]3)n[nH]c2c1F [Example 363],0.1 to 1,A (A represents a pKi value ≥10 (Ki≤0.1 nM)),31.6 to 100,–,–,–
CCc1cc(O)ccc1-c1ccc2c(-c3nc(C4=CCN(C(=O)CN(CCO)CCO)C4)c[nH]3)n[nH]c2c1F [Example 364],0.1 to 1,A (A represents a pKi value ≥10 (Ki≤0.1 nM)),31.6 to 100,–,–,–
CCc1cc(O)ccc1-c1ccc2c(-c3nc(C4=CCN(C(=O)CN5CCN(C)CC5)C4)c[nH]3)n[nH]c2c1F [Example 365],0.1 to 1,A (A represents a pKi value ≥10 (Ki≤0.1 nM)),31.6 to 100,–,–,–
CCc1cc(O)ccc1-c1ccc2c(-c3nc(C4=CCNC(C(C)C)C4)c[nH]3)n[nH]c2c1F (stereo not drawn) [Example 368],0.1 to 1,–,31.6 to 100,0.1 to 1,–,–
Oc1ccc(-c2ccc3c(-c4nc(C5=CCNCC5)c[nH]4)n[nH]c3c2)c(CC(F)(F)F)c1 [Example 369],0.1 to 1,–,31.6 to 100,0.1 to 1,–,–
CCc1cc(O)ccc1-c1ccc2c(-c3nc(C4=CCNC(C(C)(C)C)C4)c[nH]3)n[nH]c2c1F (stereo not drawn) [Example 370],1 to 10,–,31.6 to 100,0.1 to 1,–,–
CCc1cc(O)c(C)cc1-c1ccc2c(-c3nc(C4=CCNCC4)c[nH]3)n[nH]c2c1F [Example 371],1 to 10,–,31.6 to 100,1 to 10,–,–
CCc1cc(O)ccc1-c1ccc2c(-c3nc(C4=CC(c5ccccc5)NC4)c[nH]3)n[nH]c2c1F (stereo not drawn) [Example 372],1 to 10,–,31.6 to 100,1 to 10,–,–
CCc1cc(O)ccc1-c1ccc2c(-c3nc(C4=C[C@H](CC(=O)N5CCN(C)CC5)NC4)c[nH]3)n[nH]c2c1F [Example 373],0.1 to 1,A (A represents a pKi value ≥10 (Ki≤0.1 nM)),31.6 to 100,–,–,–
CCc1cc(O)ccc1-c1ccc2c(-c3nc(C4=CCN(C(=O)COCCN(C)C)C4)c[nH]3)n[nH]c2c1F [Example 374],0.1 to 1,A (A represents a pKi value ≥10 (Ki≤0.1 nM)),31.6 to 100,–,–,–
CCc1cc(O)ccc1-c1ccc2c(-c3nc(C4=CCN(C(=O)[C@H](COC)NC)C4)c[nH]3)n[nH]c2c1F [Example 375],0.1 to 1,A (A represents a pKi value ≥10 (Ki≤0.1 nM)),31.6 to 100,–,–,–
CCc1cc(O)ccc1-c1ccc2c(-c3nc(C4=CCNC(C)(C)C4)c[nH]3)n[nH]c2c1 [Example 376],0.1 to 1,–,31.6 to 100,0.1 to 1,–,–
CCc1cc(O)ccc1-c1ccc2c(-c3nc(C4=CCNC(C)(C)C4)c[nH]3)n[nH]c2c1F [Example 377],0.1 to 1,–,31.6 to 100,0.1 to 1,–,–
Oc1ccc(-c2ccc3c(-c4nc(C5=CCNC5)c[nH]4)n[nH]c3c2)c(CC(F)(F)F)c1 [Example 378],0.1 to 1,–,31.6 to 100,0.1 to 1,–,–
CCc1cc(O)ccc1-c1ccc2c(-c3nc(C4=C(C(=O)N(C)C)CNCC4)c[nH]3)n[nH]c2c1F [Example 379],0.1 to 1,A (A represents a pKi value ≥10 (Ki≤0.1 nM)),31.6 to 100,–,–,–
CCc1cc(O)ccc1-c1ccc2c(-c3nc(C4=CCN(C(=O)CCNC)C4)c[nH]3)n[nH]c2c1F [Example 380],0.1 to 1,A (A represents a pKi value ≥10 (Ki≤0.1 nM)),31.6 to 100,–,–,–
CCc1cc(O)ccc1-c1ccc2c(-c3nc(C4=CCN(C(=O)CCNCCOC)C4)c[nH]3)n[nH]c2c1F [Example 381],0.1 to 1,A (A represents a pKi value ≥10 (Ki≤0.1 nM)),31.6 to 100,–,–,–
CCc1cc(O)ccc1-c1ccc2c(-c3nc(C4=CCN(C(=O)[C@H](CO)NC)C4)c[nH]3)n[nH]c2c1F [Example 385],0.1 to 1,A (A represents a pKi value ≥10 (Ki≤0.1 nM)),31.6 to 100,–,–,–
CCc1cc(O)ccc1-c1ccc2c(-c3nc(C4=CCN[C@H](CO)C4)c[nH]3)n[nH]c2c1F [Example 386],0.1 to 1,–,–,0.1 to 1,C (C represents a pIC50 value between 7 (included) and 7.5),–
Oc1ccc(-c2ccc3c(-c4nc(C5=CCNCC5)c[nH]4)n[nH]c3c2F)c(CC(F)(F)F)c1 [Example 387],1 to 10,–,31.6 to 100,0.1 to 1,–,–
CCc1cc(O)ccc1-c1ccc2c(-c3nc(C4=CC(C(C)C)NC4)c[nH]3)n[nH]c2c1F (stereo not drawn) [Example 388],1 to 10,–,31.6 to 100,1 to 10,–,–
CCc1cc(O)ccc1-c1ccc2c(-c3nc(C4=CCN(C(=O)COCCNCCOC)C4)c[nH]3)n[nH]c2c1F [Example 389],0.1 to 1,A (A represents a pKi value ≥10 (Ki≤0.1 nM)),100 to 316,–,–,–
CCc1cc(O)ccc1-c1ccc2c(-c3nc(C4=CCN([C@H]5CC[C@](O)(C(F)(F)F)CC5)C4)c[nH]3)n[nH]c2c1F [Example 391],0.1 to 1,–,100 to 316,0.1 to 1,–,–
CCc1cc(O)ccc1-c1ccc2c(-c3nc(C4=CCN[C@H](CO)C4)c[nH]3)n[nH]c2c1F [Example 392],–,B (B represents a pKi value between 9 (included) and 10 (Ki between 1 nM and 0.1 nM)),–,–,D (D represents a pIC50 value between 6.5 (included) and 7),B (B represents a pKi value between 9 (included) and 10 (Ki between 1 nM and 0.1 nM))
CCc1cc(O)ccc1-c1ccc2c(-c3nc(C4=CCN(CCS(=O)(=O)NC)C4)c[nH]3)n[nH]c2c1F [Example 393],0.1 to 1,–,100 to 316,0.1 to 1,–,–
